Source: patent US20120052061A1, “THERAPIES FOR TREATING CANCER USING COMBINATIONS OF COX-2 INHIBITORS AND ANTI-HER2(ERBB2) ANTIBODIES OR COMBINATIONS OF COX-2 INHIBITORS AND HER2(ERBB2) RECEPTOR TYROSINE KINASE INHIBITORS” (Tragara Pharmaceuticals Inc., priority 2007, published 2012)
Where two headings read alike, the source gives them in different places.

Experiments:
[1] = oral pharmacokinetics in dogs; format: in vivo
Experimental: (§1) Peak plasma concentrations were achieved between 1 and 3 hours after a dose of 5 mg/kg.

[2] = dog, in vivo
BT474 tumor = test: BT474 model, tumor growth delay study (Example 9); conditions: po, qd to end;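 also: female SCID mice bearing subcutaneous flank BT474 xenografts, oral gavage dosing started at 100-200 mg tumors, caliper volume twice weekly, endpoint tumor 0.75 g or 90 days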
Experimental: Female SCID mice were injected subcutaneously in the flank (1 mm^3 BT474 tumor) and tumor volume was evaluated using a caliper twice a week for up to 90 days, longer for responders. Upon reaching an average tumor size of 100-200 mg the treatment was begun. Celecoxib and 2-(4-ethoxyphenyl)-4-methyl-1-(4-sulfamoylphenyl)-pyrrole were both formulated as a solution in 1% carboxymethyl cellulose/water and dosed orally by gavage. […] The endpoint for the study was when tumor volume reached 0.75 gms or 90 days, which ever came first.

[3] = rat, in vivo
[4] = human, in vivo
[5] = oral pharmacokinetics in monkeys; format: in vivo
Experimental: as §1

MCF-7 tumor = conditions: for tolerability: mouse, in vivo;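 as to all read-outs here: mouse MCF-7 tumor model, oral gavage dosing started once mean tumor size reached 100-200 mg, endpoint at tumor volume 0.75 g or 90 days, whichever occurred earlier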
Experimental: Upon reaching an average tumor size of 100-200 mg the treatment was begun. Celecoxib and 2-(4-ethoxyphenyl)-4-methyl-1-(4-sulfamoylphenyl)-pyrrole were both formulated as a solution in 1% carboxymethyl cellulose/water and dosed orally by gavage. The endpoint for the study was when tumor volume reached 0.75 gms or 90 days, which ever came first.

[6] = oral pharmacokinetics, all species examined; format: in vivo, mice, rats, dogs, and monkeys; conditions: orally administered
Experimental: as §1

[7] = human, in vivo, po
Experimental: as §1

[8] = oral pharmacokinetics in rodents; format: in vivo, rodents (mice, rats)
Experimental: as §1

[9] = in vivo
[10] = system: human breast cancer cells (SK-BR-3); test: SK-BR-3 model (Example 8); format: in vivo, nude mice; conditions: trastuzumab intravenously
Experimental: Mice are injected subcutaneously in the left paw (1×10^6 tumor cells suspended in 30% Matrigel) and tumor volume is evaluated using a phlethysmometer twice a week for 30-60 days. Implantation of human breast cancer cells (SK-BR-3) into nude mice produces tumors that will reach 0.6-2 ml between 30-50 days. […] The data is expressed as the mean+/−SEM. Student's and Mann-Whitney tests are used to assess differences between means using the InStat software package.
The efficacy of both agents are determined by measuring tumor volume.
B. In a second assay, mice injected with SK-BR-3 cancer cells are then treated with 5-FU on days 12 through 15. […] The efficacy of both agents are determined by measuring tumor volume.

[11] = Groups 2 and 6: single agent 100 mg/kg
[12] = Groups 3 and 7: single agent 30 mg/kg
[13] = Groups 3 and 9: 30 mg/kg, po, daily
[14] = Groups 4 and 10: 10 mg/kg, po, daily
[15] = Groups 5 and 11: 3 mg/kg, po, daily
[16] = Groups 6 and 12: 1 mg/kg, po, daily
[17] = third assay (C): 5-FU i.p 50 mg/kg on days 14 through 17, COX-2 inhibitor in the diet
[18] = Group 5: single agent 300 mg/kg

CCOc1ccc(-c2cc(C)cn2-c2ccc(S(N)(=O)=O)cc2)cc1
Oral availability [1]: 59%
minimum lethal dose [2]: > 2000 mg/kg
% tumor growth delay (BT474 tumor; Group 4: single agent 10 mg/kg): −22%
Difference from control (BT474 tumor; Group 4: single agent 10 mg/kg): −8.5
Median Total Time to Endpoint (BT474 tumor; Group 4: single agent 10 mg/kg): 29.7 days
Regressions: CR (complete regressions) (BT474 tumor; Group 4: single agent 10 mg/kg): 0/0/0
Regressions: PR (partial regressions) (BT474 tumor; Group 4: single agent 10 mg/kg): 0/0/0
Regressions: TFS (tumor free survivors) (BT474 tumor; Group 4: single agent 10 mg/kg): 0/0/0
% tumor growth delay (BT474 tumor; [11]): −14%
Difference from control (BT474 tumor; [11]): −5.5
Median Total Time to Endpoint (BT474 tumor; [11]): 32.7 days
Regressions: CR (complete regressions) (BT474 tumor; [11]): 0/0/0
Regressions: PR (partial regressions) (BT474 tumor; [11]): 0/0/0
Regressions: TFS (tumor free survivors) (BT474 tumor; [11]): 0/0/0
% tumor growth delay (BT474 tumor; [12]): −16%
Difference from control (BT474 tumor; [12]): −6.2
Median Total Time to Endpoint (BT474 tumor; [12]): 32.0 days
Regressions: CR (complete regressions) (BT474 tumor; [12]): 0/0/0
Regressions: PR (partial regressions) (BT474 tumor; [12]): 0/0/0
Regressions: TFS (tumor free survivors) (BT474 tumor; [12]): 0/0/0
minimum lethal dose [3]: 600 mg/kg
gastric or duodenal toxicity compared to placebo [4]: no increase in gastric or duodenal toxicity
Oral availability [5]: 34%
Difference from control (MCF-7 tumor; Group 7: 0.3 mg/kg, po, daily): 2.0
Median Total Time to Endpoint (MCF-7 tumor; Group 7: 0.3 mg/kg, po, daily): 7.5 days
Difference from control (MCF-7 tumor; [13]): 2.5
Median Total Time to Endpoint (MCF-7 tumor; [13]): 8.0 days
Difference from control (MCF-7 tumor; [14]): 1.8
Median Total Time to Endpoint (MCF-7 tumor; [14]): 7.3 days
Difference from control (MCF-7 tumor; [15]): 1.3
Median Total Time to Endpoint (MCF-7 tumor; [15]): 6.8 days
Difference from control (MCF-7 tumor; [16]): 1.6
Median Total Time to Endpoint (MCF-7 tumor; [16]): 7.1 days
tolerability (MCF-7 tumor; po): well-tolerated
active as a single agent in MCF-7 (MCF-7 tumor; single agent, po, daily): Neither
absorption [6]: rapidly absorbed
dose exposure relationship [7]: linear dose exposure relationship
half-life ([8]; mice, rats, plasma, 5 mg/kg, rodents, oral, read-out: elimination half life (t1/2)): 4 to 5 h
Oral availability ([8]; rodent): greatest
toxicological findings [9]: expected findings related to inhibition of cyclooxygenase

O=c1[nH]cc(F)c(=O)[nH]1 [5-FU, 5-fluorouracil]
reduction of tumor volume ([10]; second assay (B): 5-FU i.p 50 mg/kg on days 12, 13, 14, and 15, pyrrole in the diet): 61%
reduction of tumor volume [10, 17]: 35%

Cc1ccc(-c2cc(C(F)(F)F)nn2-c2ccc(S(N)(=O)=O)cc2)cc1 [celecoxib, reference compound]
% tumor growth delay (BT474 tumor; [18]): −4%
Difference from control (BT474 tumor; [18]): −1.6
Median Total Time to Endpoint (BT474 tumor; [18]): 36.6 days
Regressions: CR (complete regressions) (BT474 tumor; [18]): 0/0/0
Regressions: PR (partial regressions) (BT474 tumor; [18]): 0/0/0
Regressions: TFS (tumor free survivors) (BT474 tumor; [18]): 0/0/0
% tumor growth delay (BT474 tumor; [11]): −4%
Difference from control (BT474 tumor; [11]): −1.4
Median Total Time to Endpoint (BT474 tumor; [11]): 36.8 days
Regressions: CR (complete regressions) (BT474 tumor; [11]): 0/0/0
Regressions: PR (partial regressions) (BT474 tumor; [11]): 0/0/0
Regressions: TFS (tumor free survivors) (BT474 tumor; [11]): 0/0/0
Regressions: CR (complete regressions) (BT474 tumor; [12]): 0/0/0
Regressions: PR (partial regressions) (BT474 tumor; [12]): 0/0/0
Regressions: TFS (tumor free survivors) (BT474 tumor; [12]): 0/0/0
Difference from control (MCF-7 tumor; Group 8: 100 mg/kg, po, daily): 1.6
Median Total Time to Endpoint (MCF-7 tumor; Group 8: 100 mg/kg, po, daily): 7.1 days
Difference from control (MCF-7 tumor; [13]): 2.1
Median Total Time to Endpoint (MCF-7 tumor; [13]): 7.6 days
Difference from control (MCF-7 tumor; [14]): 2.1
Median Total Time to Endpoint (MCF-7 tumor; [14]): 7.6 days
Difference from control (MCF-7 tumor; [15]): 1.4
Median Total Time to Endpoint (MCF-7 tumor; [15]): 6.9 days
Difference from control (MCF-7 tumor; [16]): 1.7
Median Total Time to Endpoint (MCF-7 tumor; [16]): 7.2 days
tolerability (MCF-7 tumor; po): well-tolerated

O=P1(N(CCCl)CCCl)NCCCO1 (centres unmarked) [cyclophosphamide]
Difference from control (MCF-7 tumor; Group 2: 112 mg/kg Q4D×3): 9.2
Median Total Time to Endpoint (MCF-7 tumor; Group 2: 112 mg/kg Q4D×3): 14.7 days

Cc1onc(-c2ccccc2)c1-c1ccc(S(N)(=O)=O)cc1 [valdecoxib]
reduction of tumor volume [10, 17]: 69%
